Reference: patent US7851489B2, “Pyridinone compounds” (Bristol-Myers Squibb Company, priority 2006, dated 2010)
Like-named read-outs stand apart in the source and are kept apart here.

How the values were obtained:
[1] = Pharmacokinetic parameters obtained in mice, 8 h oral exposure study; format: in vivo; conditions: mouse, serum; single oral dose 50 mg/kg, solution in 70% PEG400/30% water, fasted male Balb/C mice; read-out: Pharmacokinetic Parameters AUC0-8 h
Experimental: Pharmacokinetic Parameters Obtained in Mice. In a 8 h oral exposure studies, a single-dose of 50 mg/kg of the compounds were delivered as a solution in 70% PEG400/30% water by oral gavage to fasted adult male Balb/C mice (n=2 or 3 per compound). Three serum samples were collected from each mouse at 0.5, 1, 4, 8 h time points following oral dosing. The first two samples were obtained by retro-orbital bleed (˜100 μL/20-25 g mouse) and the third sample by cardiac puncture. The blood samples were allowed to clot on ice, centrifuged and then serum harvested. Plasma samples were stored at −20° C. prior to analysis. The plasma samples were analyzed for parent compound via HPLC coupled tandem mass spectrometry (LC/MS/MS).

GST-Met kinase = biological target: T1, GST-Met kinase (Homo sapiens, UniProt P08581); assay: Met kinase assay; format: biochemical; conditions: 1 μM ATP, polyGlu:Tyr (4:1) substrate, 60 min at 30° C.
T1 construct: host or cells: baculovirus expression system
Experimental: Incubation mixtures employed for the Met kinase assay contain a baculovirus expressed GST-Met kinase, the synthetic substrate polyGlu:Tyr, (4:1), ATP, ATP-γ-^33 P and buffer containing Mn^++, DTT, BSA, and Tris. Reactions were incubated for 60 minutes at 30° C. and stopped by the addition of cold trichloroacetic acid (TCA) to a final concentration 8%. TCA precipitates were collected onto GF/C unifilter plates (Packard Instrument Co., Meriden, Conn.) using a Filtermate universal harvester (Packard Instrument Co., Meriden, Conn.) and the filters are quantitated using a TopCount 96/384-well liquid scintillation counter (Packard Instrument Co., Meriden, Conn.). Dose response curves were generated to determine the concentration required to inhibit 50% of kinase activity (IC—50). Compounds were dissolved at 10 mM in dimethyl sulfoxide (DMSO) and evaluated at ten concentrations, each in duplicate. The final concentration of DMSO in the assay is 1.7%. IC—50 values were derived by non-linear regression.

[2] = test system: GTL-16 human gastric carcinoma model; assay: In vivo efficacy against GTL-16 gastric carcinoma xenografts
Source text: In Vivo Efficacy Determination […] FIG. 1. Antitumor activity against GTL-16 gastric carcinoma xenografts

[3] = test system: U87 human glioblastoma model; assay: In vivo efficacy against U87 glioblastoma xenografts
Source text: In Vivo Efficacy Determination […] FIG. 2. Antitumor activity against U87 glioblastoma xenografts

CYP3A4 = biological target: T2, CYP3A4 (Homo sapiens, UniProt P08684); assay: Cytochrome P450 assay (recombinant human CYP isoforms, fluorescence); format: in vitro ADME
T2 construct: host or cells: baculovirus-infected insect cells
T2 sequence (P08684 whole entry, canonical isoform): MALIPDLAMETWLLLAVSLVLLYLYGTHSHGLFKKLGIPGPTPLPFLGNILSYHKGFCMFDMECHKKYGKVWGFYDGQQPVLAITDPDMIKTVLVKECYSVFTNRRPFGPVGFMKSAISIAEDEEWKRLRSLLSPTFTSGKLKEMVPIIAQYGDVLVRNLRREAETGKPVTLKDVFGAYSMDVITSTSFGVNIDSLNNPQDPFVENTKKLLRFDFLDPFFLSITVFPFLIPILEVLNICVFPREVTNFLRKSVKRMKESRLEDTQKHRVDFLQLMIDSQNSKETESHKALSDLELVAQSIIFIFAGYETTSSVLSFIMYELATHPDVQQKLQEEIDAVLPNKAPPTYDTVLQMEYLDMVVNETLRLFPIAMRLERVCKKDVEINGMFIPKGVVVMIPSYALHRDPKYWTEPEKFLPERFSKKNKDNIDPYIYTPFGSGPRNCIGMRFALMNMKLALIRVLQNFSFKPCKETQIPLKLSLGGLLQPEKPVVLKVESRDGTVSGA
Experimental: The ability of compound to inhibit the major human cytochrome P450s (CYPs) responsible for drug metabolism was evaluated in vitro using recombinant human CYP isoforms. […] CYP3A4 inhibition was evaluated with two substrates: 7-benzyloxy-4-trifluoromethylcoumarin (BFC) and resorufin benzyl ether (BzRes). A single concentration of each model substrate (at approximately the apparent Km, with the exception of BFC, which was tested below the apparent Km) and multiple concentrations of the test compounds, separated by approximately ½ log units, were tested in duplicate. Metabolism of the model substrates was assayed by the production of 7-hydroxy-3-cyanocoumarin, 3-[2-(N,N-diethylamino)ethyl]-7-hydroxy-4-methylcoumarin, 7-hydroxy-4-trifluoromethylcoumarin or resorufin, and measured via fluorescence detection. Assays were conducted in 96-well microtiter plates in the presence of an NADPH generating system. Positive control samples were included in these studies. […] The IC50 values were calculated utilizing XLfit curve-fitting software.

T1 sequence (P08581 25-1390): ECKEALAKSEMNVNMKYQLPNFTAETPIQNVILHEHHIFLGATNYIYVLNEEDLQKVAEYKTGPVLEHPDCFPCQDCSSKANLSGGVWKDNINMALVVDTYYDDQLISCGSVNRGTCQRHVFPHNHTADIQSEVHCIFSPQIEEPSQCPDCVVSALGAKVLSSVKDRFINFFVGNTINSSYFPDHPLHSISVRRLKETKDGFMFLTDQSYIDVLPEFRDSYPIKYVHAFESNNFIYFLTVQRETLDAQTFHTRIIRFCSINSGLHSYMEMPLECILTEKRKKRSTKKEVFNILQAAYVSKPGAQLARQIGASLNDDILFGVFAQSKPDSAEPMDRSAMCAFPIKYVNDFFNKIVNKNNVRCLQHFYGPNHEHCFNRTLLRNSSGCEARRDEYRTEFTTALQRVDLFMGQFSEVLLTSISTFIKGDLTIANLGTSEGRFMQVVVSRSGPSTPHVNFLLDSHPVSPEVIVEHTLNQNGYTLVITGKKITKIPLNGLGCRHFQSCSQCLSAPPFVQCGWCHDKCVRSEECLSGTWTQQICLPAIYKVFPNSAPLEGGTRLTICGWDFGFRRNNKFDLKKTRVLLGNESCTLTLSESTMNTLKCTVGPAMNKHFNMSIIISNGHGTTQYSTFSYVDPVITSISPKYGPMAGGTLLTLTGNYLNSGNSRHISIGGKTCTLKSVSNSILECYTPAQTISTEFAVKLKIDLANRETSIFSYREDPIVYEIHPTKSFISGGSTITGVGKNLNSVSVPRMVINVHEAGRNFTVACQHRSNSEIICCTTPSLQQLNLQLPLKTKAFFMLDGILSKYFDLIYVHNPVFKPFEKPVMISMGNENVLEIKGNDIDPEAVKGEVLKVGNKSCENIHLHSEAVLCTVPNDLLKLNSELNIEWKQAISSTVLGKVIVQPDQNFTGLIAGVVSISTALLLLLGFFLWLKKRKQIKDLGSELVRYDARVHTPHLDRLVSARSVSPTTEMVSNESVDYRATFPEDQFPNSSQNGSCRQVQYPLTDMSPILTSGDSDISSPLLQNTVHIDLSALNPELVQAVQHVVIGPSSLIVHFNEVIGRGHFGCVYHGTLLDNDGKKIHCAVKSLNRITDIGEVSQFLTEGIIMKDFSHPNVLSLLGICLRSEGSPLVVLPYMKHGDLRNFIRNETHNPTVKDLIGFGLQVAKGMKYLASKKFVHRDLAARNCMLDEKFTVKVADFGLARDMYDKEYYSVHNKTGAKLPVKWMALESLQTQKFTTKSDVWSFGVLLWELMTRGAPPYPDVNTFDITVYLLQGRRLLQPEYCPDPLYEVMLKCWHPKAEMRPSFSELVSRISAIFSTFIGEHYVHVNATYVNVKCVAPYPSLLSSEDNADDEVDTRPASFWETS

AUC(0-t) [1]	IC50 (GST-Met kinase)	IC50 (CYP3A4; substrate 7-benzyloxy-4-trifluoromethylcoumarin (BFC), read-out: CYP 3A4-BFC IC50)	IC50 (CYP3A4; substrate resorufin benzyl ether (BzRes), read-out: CYP 3A4-BZR IC50)	SMILES	overt toxicity ([2]; GTL-16 study, 6.25 mg/kg to 50 mg/kg dosed once a day for 14 days)	maximum efficacious dose level ([2]; GTL-16 tumor xenograft)	minimum efficacious dose (MED) ([2]; GTL-16 tumor xenograft)	antitumor activity ([2]; GTL-16 xenografts, 25 mg/kg)	antitumor activity ([2]; GTL-16 xenografts, 50 mg/kg)	antitumor activity at higher dose ([2]; GTL-16 xenografts, 100 mg/kg, previously described study)	tumor growth inhibition (TGI) ([2]; GTL-16 xenografts, lowest dose level tested, 6.25 mg/kg)	tumor growth inhibition (TGI) ([2]; GTL-16 xenografts, multiple dose levels ranging from 6.25 mg/kg to 50 mg/kg, once a day for 14 days, for at least one tumor doubling time)	antitumor activity ([3]; 25 mg/kg)	antitumor activity ([3]; 50 mg/kg)
236 µM·h	3.5 nM			CCOc1ccn(-c2ccc(F)cc2)c(=O)c1C(=O)Nc1ccc(Oc2ccnc(N)c2Cl)c(F)c1 [Compound 1, N-(4-(2-Amino-3-chloropyridin-4-yloxy)-3-fluorophenyl)-4-ethoxy-1-(4-fluorophenyl)-2-oxo-1,2-dihydropyridine-3-carboxamide]	No overt toxicity was observed	25 mg/kg	6.25 mg/kg	complete tumor stasis	complete tumor stasis	no increase in activity was observed	greater than 50%	greater than 50%	complete tumor stasis	complete tumor stasis
33 µM·h		510 nM	6400 nM	Cl.Nc1cc(Oc2ccc(NC(=O)c3cccn(-c4ccc(F)cc4)c3=O)cc2F)ccn1 [Compound 2, N-(4-(2-Aminopyridin-4-yloxy)-3-fluorophenyl)-1-(4-fluorophenyl)-2-oxo-1,2-dihydropyridine-3-carboxamide, hydrochloride salt]										
